Literature values as cited in PubChem BioAssay AID1259409 (Chemical Carcinogenesis Research Information System (CCRIS), 2018).

System: rodent chemically induced tumor inhibition, incidence and multiplicity
Test: CCRIS tumor inhibitor studies
Conditions: Dose [Inhibitor]: 0, 400 NMOL ONCE APPLIED 5 MIN PRIOR TO CARCINOGEN DOSE (STUDY DURATION: 25 WK), Route [Inhibitor]: DERMAL, Species: MOUSE, Strain/Sex: SENCAR, Target Tissue: Type of Lesion: SKIN: PAPILLOMA, Promoter: 12-O-TETRADECANOYLPHORBOL-13-ACETATE, 16561-29-8

COc1c2ccoc2cc2cc(C)oc(=O)c12
tumour outcome (control, treated, inhibition, significance) (Carcinogen: 7,12-DIMETHYLBENZ[A]ANTHRACENE, 57-97-6, Dose [Carcinogen]: 10 NMOL ONCE): 96%, 96%, 0%, not significant
tumour outcome (control, treated, inhibition, significance) (Carcinogen: BENZO[A]PYRENE, 50-32-8, Dose [Carcinogen]: 200 NMOL ONCE): 91%, 91%, 0%, not significant
